Experimental data published in ChEMBL document CHEMBL6153174, “Design and Synthesis of Novel Deazapurine DNMT 1 Inhibitors with In Vivo Efficacy in DLBCL” (J Med Chem, 2025).
pIC50: −log10 of the molar value. Calls of active or inactive are those of the source. The calls are words filed in the database; no cut-off is given here.

What was measured:
[1] = biological target: T1, Histone-lysine N-methyltransferase EHMT2 (Homo sapiens, UniProt Q96KQ7); experiment: Inhibition of G9a (unknown origin) preincubated for 15 mins followed by substrate and [3H-SAM] addition and measured after 60 mins by microbeta analysis
T1 sequence (Q96KQ7 whole entry): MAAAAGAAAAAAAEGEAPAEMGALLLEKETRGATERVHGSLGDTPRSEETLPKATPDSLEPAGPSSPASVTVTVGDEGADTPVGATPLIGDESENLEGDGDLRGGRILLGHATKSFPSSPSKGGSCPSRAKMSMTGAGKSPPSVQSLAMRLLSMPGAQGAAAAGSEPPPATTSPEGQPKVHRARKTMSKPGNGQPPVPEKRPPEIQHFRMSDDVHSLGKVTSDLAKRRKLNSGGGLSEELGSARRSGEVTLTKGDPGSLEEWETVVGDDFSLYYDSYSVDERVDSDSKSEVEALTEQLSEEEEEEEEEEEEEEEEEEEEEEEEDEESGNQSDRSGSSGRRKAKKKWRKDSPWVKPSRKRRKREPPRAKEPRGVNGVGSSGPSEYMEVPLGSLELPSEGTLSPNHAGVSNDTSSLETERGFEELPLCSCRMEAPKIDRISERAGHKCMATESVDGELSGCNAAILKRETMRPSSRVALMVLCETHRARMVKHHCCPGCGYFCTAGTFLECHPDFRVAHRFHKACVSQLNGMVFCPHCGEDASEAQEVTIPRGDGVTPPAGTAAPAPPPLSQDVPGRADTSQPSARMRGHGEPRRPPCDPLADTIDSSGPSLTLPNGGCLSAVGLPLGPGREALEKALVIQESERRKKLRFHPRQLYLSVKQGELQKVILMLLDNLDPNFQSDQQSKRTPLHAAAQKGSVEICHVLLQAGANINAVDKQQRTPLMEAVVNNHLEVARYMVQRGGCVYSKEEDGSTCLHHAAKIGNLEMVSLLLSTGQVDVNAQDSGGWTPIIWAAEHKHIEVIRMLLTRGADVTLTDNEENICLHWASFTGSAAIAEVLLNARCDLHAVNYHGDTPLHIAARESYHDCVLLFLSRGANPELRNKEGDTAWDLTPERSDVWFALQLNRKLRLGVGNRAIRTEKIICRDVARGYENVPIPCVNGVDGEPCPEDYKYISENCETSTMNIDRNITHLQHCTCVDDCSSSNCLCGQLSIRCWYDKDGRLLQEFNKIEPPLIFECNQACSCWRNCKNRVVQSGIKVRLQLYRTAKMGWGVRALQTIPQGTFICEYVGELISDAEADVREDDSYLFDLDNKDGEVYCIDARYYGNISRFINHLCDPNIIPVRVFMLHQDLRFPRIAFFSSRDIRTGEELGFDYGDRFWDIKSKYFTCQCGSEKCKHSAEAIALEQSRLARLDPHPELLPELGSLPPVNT

[2] = biological target: T2, DNA (cytosine-5)-methyltransferase 3B (Homo sapiens, UniProt Q9UBC3); experiment: Inhibition of DNMT3B (unknown origin) at 5 uM preincubated for 15 mins followed by substrate and [3H-SAM] addition and measured after 60 mins by microbeta analysis relative to control; details: time 75.0 min
[3] = system: U-937; experiment: Antiproliferative activity against human U-937 cells assessed as inhibition of cell viability measured after 72 hrs by MTT assay; format: functional, cell-based; details: U-937, 72 h
[4] = biological target: T2, DNA (cytosine-5)-methyltransferase 3B; experiment: Inhibition of DNMT3B (unknown origin) preincubated for 15 mins followed by substrate and [3H-SAM] addition and measured after 60 mins by microbeta analysis
[5] = biological target: T3, DNA (cytosine-5)-methyltransferase 3A (Homo sapiens, UniProt Q9Y6K1); experiment: Inhibition of DNMT3A (unknown origin) preincubated for 15 mins followed by substrate and [3H-SAM] addition and measured after 60 mins by microbeta analysis
[6] = biological target: T4, Histone-lysine N-methyltransferase EHMT2 (Homo sapiens) (UniProt Q96KQ7); experiment: Inhibition of G9a (unknown origin) at 5 uM preincubated for 15 mins followed by substrate and [3H-SAM] addition and measured after 60 mins by microbeta analysis relative to control; details: time 75.0 min
T4 sequence (whole entry): T1 sequence (Q96KQ7 whole entry)

[7] = system: MV4-11; experiment: Antiproliferative activity against human MV4-11 cells assessed as inhibition of cell viability measured after 72 hrs by MTT assay; format: functional, cell-based; details: MV4-11, 72 h
[8] = biological target: T3, DNA (cytosine-5)-methyltransferase 3A; experiment: Inhibition of DNMT3A (unknown origin) at 5 uM preincubated for 15 mins followed by substrate and [3H-SAM] addition and measured after 60 mins by microbeta analysis relative to control; details: time 75.0 min
[9] = biological target: T5, DNA (cytosine-5)-methyltransferase 1 (Homo sapiens, UniProt P26358); experiment: Inhibition of DNMT1 (unknown origin) at 5 uM preincubated for 15 mins followed by substrate and [3H-SAM] addition and measured after 60 mins by microbeta analysis relative to control; details: time 75.0 min
[10] = biological target: T5, DNA (cytosine-5)-methyltransferase 1; experiment: Inhibition of DNMT1 (unknown origin) preincubated for 15 mins followed by substrate and [3H-SAM] addition and measured after 60 mins by microbeta analysis
[11] = system: DOHH-2; experiment: Antiproliferative activity against human DOHH-2 cells assessed as inhibition of cell viability measured after 72 hrs by MTT assay; format: functional, cell-based; details: DOHH-2, 72 h
[12] = system: TMD8; experiment: Antiproliferative activity against human TMD8 cells assessed as inhibition of cell viability measured after 72 hrs by MTT assay; format: functional, cell-based; details: TMD8, 72 h
[13] = Antiproliferative activity against human NK-YS cells assessed as inhibition of cell viability measured after 72 hrs by MTT assay; format: functional, cell-based
[14] = system: U2932; experiment: Antiproliferative activity against human U2932 cells assessed as inhibition of cell viability measured after 72 hrs by MTT assay; format: functional, cell-based; details: U2932, 72 h
[15] = system: Jurkat; experiment: Antiproliferative activity against human Jurkat cells assessed as inhibition of cell viability measured after 72 hrs by MTT assay; format: functional, cell-based
[16] = biological target: T5, DNA (cytosine-5)-methyltransferase 1; experiment: Inhibition of DNMT1 (unknown origin) at 1 uM preincubated for 15 mins followed by substrate and [3H-SAM] addition and measured after 60 mins by microbeta analysis relative to control; details: time 75.0 min
[17] = biological target: T5, DNA (cytosine-5)-methyltransferase 1; experiment: Inhibition of DNMT1 in human DOHH-2 cells assessed as inhibition of 5-methylcytosine level at 10 to 1000 nM incubated for 48 hrs by Western blot analysis; format: cell-based; details: dose 10-1000 nM
[18] = biological target: T5, DNA (cytosine-5)-methyltransferase 1; experiment: Inhibition of DNMT1 in human DOHH-2 cells assessed as inhibition of H3K9 methylation level incubated for 48 hrs by Western blot analysis; format: cell-based; details: dose 10-1000 nM
[19] = biological target: T5, DNA (cytosine-5)-methyltransferase 1; experiment: Inhibition of DNMT1 in human DOHH-2 cells assessed as inhibition of DNA methylation incubated for 48 hrs by Western blot analysis; format: cell-based; details: dose 10-1000 nM

T3 sequence (Q9Y6K1 whole entry, looked up): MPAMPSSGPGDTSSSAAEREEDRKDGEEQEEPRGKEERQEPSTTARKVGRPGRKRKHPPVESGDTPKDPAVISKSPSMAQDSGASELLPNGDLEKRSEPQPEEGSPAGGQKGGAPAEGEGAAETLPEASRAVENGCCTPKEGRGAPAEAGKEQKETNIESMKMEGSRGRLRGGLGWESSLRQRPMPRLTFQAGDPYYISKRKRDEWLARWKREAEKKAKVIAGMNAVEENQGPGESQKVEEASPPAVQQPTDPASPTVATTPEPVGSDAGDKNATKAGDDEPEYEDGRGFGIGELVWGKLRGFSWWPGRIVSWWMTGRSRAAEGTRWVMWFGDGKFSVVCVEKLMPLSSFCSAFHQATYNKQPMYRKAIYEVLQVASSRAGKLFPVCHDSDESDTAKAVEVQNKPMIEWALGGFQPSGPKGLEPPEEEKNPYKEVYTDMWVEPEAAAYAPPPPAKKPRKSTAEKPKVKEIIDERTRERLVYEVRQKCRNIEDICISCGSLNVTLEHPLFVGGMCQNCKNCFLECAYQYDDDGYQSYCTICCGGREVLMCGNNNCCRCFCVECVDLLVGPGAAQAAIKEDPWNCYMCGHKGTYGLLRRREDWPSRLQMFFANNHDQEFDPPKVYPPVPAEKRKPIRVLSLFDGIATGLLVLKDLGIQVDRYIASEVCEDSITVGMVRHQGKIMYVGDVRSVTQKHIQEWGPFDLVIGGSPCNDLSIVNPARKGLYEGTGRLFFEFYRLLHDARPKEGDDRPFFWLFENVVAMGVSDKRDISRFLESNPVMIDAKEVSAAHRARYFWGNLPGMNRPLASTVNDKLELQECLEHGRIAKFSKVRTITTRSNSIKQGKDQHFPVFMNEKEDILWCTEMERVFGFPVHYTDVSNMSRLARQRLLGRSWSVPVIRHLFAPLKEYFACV
T5 sequence (P26358 whole entry): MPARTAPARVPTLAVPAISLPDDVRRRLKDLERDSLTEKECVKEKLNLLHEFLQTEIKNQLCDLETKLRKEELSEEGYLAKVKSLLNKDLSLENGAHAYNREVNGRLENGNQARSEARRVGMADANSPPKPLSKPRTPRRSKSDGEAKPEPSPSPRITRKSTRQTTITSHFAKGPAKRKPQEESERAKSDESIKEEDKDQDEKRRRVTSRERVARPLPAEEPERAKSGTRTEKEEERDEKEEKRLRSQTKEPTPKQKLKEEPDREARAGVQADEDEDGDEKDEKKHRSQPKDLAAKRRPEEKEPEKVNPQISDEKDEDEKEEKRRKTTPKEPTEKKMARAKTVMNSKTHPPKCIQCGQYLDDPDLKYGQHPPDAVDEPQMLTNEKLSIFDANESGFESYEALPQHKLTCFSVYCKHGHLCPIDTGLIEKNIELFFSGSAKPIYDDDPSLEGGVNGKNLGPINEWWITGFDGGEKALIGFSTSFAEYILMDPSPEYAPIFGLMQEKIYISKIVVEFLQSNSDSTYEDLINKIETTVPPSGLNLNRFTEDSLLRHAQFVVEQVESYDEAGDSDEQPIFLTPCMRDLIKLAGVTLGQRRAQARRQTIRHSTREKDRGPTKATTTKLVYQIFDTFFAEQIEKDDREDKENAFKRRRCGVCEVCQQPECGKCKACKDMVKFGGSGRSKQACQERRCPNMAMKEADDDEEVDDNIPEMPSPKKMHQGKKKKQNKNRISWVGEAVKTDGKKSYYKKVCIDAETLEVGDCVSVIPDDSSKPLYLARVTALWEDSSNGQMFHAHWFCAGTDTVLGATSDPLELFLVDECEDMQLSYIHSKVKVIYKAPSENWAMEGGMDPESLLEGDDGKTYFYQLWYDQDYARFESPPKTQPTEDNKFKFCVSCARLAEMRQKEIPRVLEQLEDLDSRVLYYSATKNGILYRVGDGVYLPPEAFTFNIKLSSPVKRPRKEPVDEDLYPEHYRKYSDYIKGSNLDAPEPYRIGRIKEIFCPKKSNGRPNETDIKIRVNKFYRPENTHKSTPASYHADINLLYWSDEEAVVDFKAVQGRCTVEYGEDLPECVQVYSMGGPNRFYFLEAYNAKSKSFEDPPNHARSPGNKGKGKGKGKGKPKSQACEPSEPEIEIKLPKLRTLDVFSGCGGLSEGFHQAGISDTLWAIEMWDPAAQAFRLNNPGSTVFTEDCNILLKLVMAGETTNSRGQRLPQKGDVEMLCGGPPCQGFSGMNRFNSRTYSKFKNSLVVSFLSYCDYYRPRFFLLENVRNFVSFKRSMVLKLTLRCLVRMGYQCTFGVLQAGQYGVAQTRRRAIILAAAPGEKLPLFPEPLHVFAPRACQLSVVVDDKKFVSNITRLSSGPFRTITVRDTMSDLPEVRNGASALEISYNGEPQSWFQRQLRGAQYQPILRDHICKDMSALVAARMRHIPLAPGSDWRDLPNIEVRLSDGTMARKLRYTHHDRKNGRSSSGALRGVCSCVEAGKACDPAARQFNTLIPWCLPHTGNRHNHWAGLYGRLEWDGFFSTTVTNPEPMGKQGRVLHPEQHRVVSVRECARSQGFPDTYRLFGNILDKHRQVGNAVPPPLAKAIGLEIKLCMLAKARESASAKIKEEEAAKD

pIC50 [1]	inhibition [2] [%]	pIC50 [3]	pIC50 [4]	pIC50 [5]	inhibition [6] [%]	pIC50 [7]	inhibition [8] [%]	inhibition [9] [%]	pIC50 [10]	pIC50 [15]	inhibition [16] [%]	inhibition [17]	inhibition [18]	inhibition [19]	SMILES	pIC50 [11]	pIC50 [12]	pIC50 [13]	pIC50 [14]
< 4.70	0.6	4.57	< 4.70	4.78	-1.1	4.74	17	52	5.79	–	–	–	–	–	CN1CCC(Nc2nc(-c3ccc(N)nc3)nc3c2ccn3CCCN2CCCC2)CC1	–	–	–	–
< 4.70	1.2	5.34	< 4.70	4.74	1	4.99	15	49	5.72	–	–	–	–	–	COc1ccc(-c2nc(NC3CCN(C)CC3)c3ccn(CCCN4CCCC4)c3n2)cn1	–	–	–	–
< 4.70	3.5	5.00	< 4.70	< 4.70	1.3	5.11	8.5	69	5.40	–	–	–	–	–	CN1CCC(Nc2nc(-c3ccncc3)nc3c2ccn3CCCN2CCCC2)CC1	–	–	–	–
–	–	–	–	–	–	–	–	–	–	4.70	–	–	–	–	CCc1c(C#N)c(SC(C(N)=O)c2ccccc2)nc(N2CCC(N)CC2)c1C#N (centres undefined)	4.95	4.67	4.78	4.54
–	–	–	–	–	–	4.61	–	–	–	–	41	–	–	–	CN1CCN(c2cc(NCC3CCN(C(=O)C(C)(C)C)CC3)c3cnn(CCCN4CCOCC4)c3c2)CC1	–	–	–	–
–	–	–	–	–	–	–	–	–	–	6.39	–	Active	Dose-dependent-effect	Dose-dependent-effect	COc1cc2c(NC3CCN(C)CC3)cc(-c3ccc(C)o3)nc2cc1OCCCN1CCCC1	6.64	6.72	–	5.67
